# Assay results: patent publication US4243408A, “Herbicidal N-triazolylmethyl-substituted alpha-haloacetanilide” (Chevron Research Company, priority 1978, dated 1981)
# How the values were obtained:
# Type in all cases: in vivo
# [1] = system: Pigweed (Amaranthus retroflexus); test: Post-Emergent Test, herbicidal effectiveness; conditions: post-emergence, 504 h, 33 micrograms per cm^2, 3 weeks, 0-to-100 scale, read-out: Herbicidal Effectiveness, % Control Post, P
# [2] = system: Lambsquarter (Chenopodium album); test: Post-Emergent Test, herbicidal effectiveness; conditions: post-emergence, 504 h, 33 micrograms per cm^2, 3 weeks, 0-to-100 scale, read-out: Herbicidal Effectiveness, % Control Post, L
# Watergrass (Echinochloa) [3] = test: Post-Emergent Test, herbicidal effectiveness; conditions: post-emergence, 504 h, 33 micrograms per cm^2, 3 weeks, 0-to-100 scale, read-out: Herbicidal Effectiveness, % Control Post, W
# [4] = system: Mustard (Brassica arvensis); test: Post-Emergent Test, herbicidal effectiveness; conditions: post-emergence, 504 h, 33 micrograms per cm^2, 3 weeks, 0-to-100 scale
# [5] = system: Crabgrass (Digitaria sanguinalis); test: Post-Emergent Test, herbicidal effectiveness; conditions: post-emergence, 504 h, 33 micrograms per cm^2, 3 weeks, 0-to-100 scale, read-out: Herbicidal Effectiveness, % Control Post, C
# Wild Oats (Avena fatua) [6] = test: Post-Emergent Test, herbicidal effectiveness; conditions: post-emergence, 504 h, 33 micrograms per cm^2, 3 weeks, 0-to-100 scale, read-out: Herbicidal Effectiveness, % Control Post, O
# [7] = system: Pigweed (Amaranthus retroflexus); test: Pre-Emergent Test, herbicidal effectiveness; conditions: pre-emergence, 504 h, 0-to-100 scale, read-out: Herbicidal Effectiveness, % Control Pre, P; for pest or weed control at 33 µg/cm2: 33 micrograms per cm^2, 3 weeks
# Method: (§1) An acetone solution of the test compound was prepared by mixing 750 mg of the compound, 220 mg of a nonionic surfactant and 25 ml of acetone. This solution was added to approximately 125 ml of water containing 156 mg of surfactant.
# (§2) Seeds of the test vegetation were planted in a pot of soil and the test solution was sprayed uniformly onto the soil surface at a dose of 33 micrograms/cm^2. The pot was watered and placed in a greenhouse. […] At the end of this period, the herbicidal effectiveness of the compound was rated based on the physiological observations. A 0-to-100 scale was used, 0 representing no phytotoxicity, 100 representing complete kill.
# [8] = system: Lambsquarter (Chenopodium album); test: Pre-Emergent Test, herbicidal effectiveness; conditions: pre-emergence, 504 h, 0-to-100 scale, read-out: Herbicidal Effectiveness, % Control Pre, L; for pest or weed control at 33 µg/cm2: 33 micrograms per cm^2, 3 weeks
# Method: as §1, §2
# Watergrass (Echinochloa) [9] = test: Pre-Emergent Test, herbicidal effectiveness; conditions: pre-emergence, 504 h, 0-to-100 scale, read-out: Herbicidal Effectiveness, % Control Pre, W; for pest or weed control at 33 µg/cm2: 33 micrograms per cm^2, 3 weeks; for pest or weed control at 11 µg/cm2: 11 micrograms per cm^2, 3 weeks
# Method: as §1, §2
# [10] = system: Mustard (Brassica arvensis); test: Pre-Emergent Test, herbicidal effectiveness; conditions: pre-emergence, 504 h, 0-to-100 scale; for pest or weed control at 33 µg/cm2: 33 micrograms per cm^2, 3 weeks
# Method: as §1, §2
# [11] = system: Crabgrass (Digitaria sanguinalis); test: Pre-Emergent Test, herbicidal effectiveness; conditions: pre-emergence, 504 h, 0-to-100 scale, read-out: Herbicidal Effectiveness, % Control Pre, C; for pest or weed control at 33 µg/cm2: 33 micrograms per cm^2, 3 weeks
# Method: as §1, §2
# Wild Oats (Avena fatua) [12] = test: Pre-Emergent Test, herbicidal effectiveness; conditions: pre-emergence, 504 h, 0-to-100 scale, read-out: Herbicidal Effectiveness, % Control Pre, O; for pest or weed control at 33 µg/cm2: 33 micrograms per cm^2, 3 weeks; for pest or weed control at 11 µg/cm2: 11 micrograms per cm^2, 3 weeks
# Method: as §1, §2
# [13] = 11 micrograms per cm^2, 3 weeks
SMILES,"pest or weed control at 5000 µg/mL, 33 µg/cm2 [1] [%]","pest or weed control at 5000 µg/mL, 33 µg/cm2 [2] [%]","pest or weed control at 5000 µg/mL, 33 µg/cm2 (Watergrass (Echinochloa) [3]) [%]","pest or weed control at 5000 µg/mL, 33 µg/cm2 [4] [%]","pest or weed control at 5000 µg/mL, 33 µg/cm2 [5] [%]","pest or weed control at 5000 µg/mL, 33 µg/cm2 (Wild Oats (Avena fatua) [6]) [%]",pest or weed control at 33 µg/cm2 [7] [%],pest or weed control at 33 µg/cm2 [8] [%],pest or weed control at 33 µg/cm2 (Watergrass (Echinochloa) [9]) [%],pest or weed control at 33 µg/cm2 [10] [%],pest or weed control at 33 µg/cm2 [11] [%],pest or weed control at 33 µg/cm2 (Wild Oats (Avena fatua) [12]) [%],"pest or weed control at 11 µg/cm2 [7, 13] [%]","pest or weed control at 11 µg/cm2 [8, 13] [%]",pest or weed control at 11 µg/cm2 (Watergrass (Echinochloa) [9]) [%],"pest or weed control at 11 µg/cm2 [10, 13] [%]","pest or weed control at 11 µg/cm2 [11, 13] [%]",pest or weed control at 11 µg/cm2 (Wild Oats (Avena fatua) [12]) [%]
CSc1nnc(CNc2c(C)cccc2C)n1C [Compound 14A],0,0,0,0,0,0,0,0,0,0,0,0,,,,,,
Cc1nnc(CN(C(=O)CCl)c2ccc(Cl)c(Cl)c2)[nH]1 [Compound 27B],0,0,0,0,0,0,0,0,0,0,0,0,,,,,,
Cc1nnc(CNc2ccc(Cl)c(Cl)c2)[nH]1 [Compound 27A],0,0,0,0,0,0,0,0,0,0,0,0,,,,,,
CCc1nnc(CNc2c(CC)cccc2CC)[nH]1 [Compound 8A],0,0,0,0,0,0,0,0,0,0,0,0,,,,,,
CCc1cccc(CC)c1NCc1nnc[nH]1 [Compound 20A],0,0,0,0,0,0,0,0,0,0,0,0,,,,,,
Cc1nnc(C(C)N(C(=O)CCl)c2c(C)cccc2C)[nH]1 (centres unmarked) [Compound 11B],20,25,73,20,55,10,90,100,100,80,100,97,,,,,,
Cc1nnc(CCNc2c(C)cccc2C)[nH]1 [Compound 10A],0,0,0,0,0,0,0,0,0,0,0,0,,,,,,
"Cc1nc(CNc2c(C)cccc2C)n[nH]1 [Compound 2A, 3-(2,6-dimethylphenylaminomethyl)-5-methyl-1,2,4-triazole]",0,0,0,0,0,0,0,0,0,0,0,0,,,,,,
CCc1nnc(CN(C(=O)CCl)c2c(CC)cccc2CC)[nH]1 [Compound 8B],,,,,,,,,,,,,90,100,100,83,100,99
Cc1cccc(C)c1NCc1nnc(S)[nH]1 [Compound 18A],0,0,0,0,0,0,0,0,0,0,0,0,,,,,,
CCc1cccc(CC)c1N(Cc1nnc[nH]1)C(=O)CCl [Compound 20B],35,25,55,30,30,0,100,97,100,95,95,97,,,,,,
CCc1cccc(C)c1N(Cc1nnc[nH]1)C(=O)CCl [Compound 17B],65,65,75,75,75,60,95,100,100,90,100,100,,,,,,
CCc1cccc(C)c1N(Cc1nnc(C)[nH]1)C(=O)CCl [Compound 6B],,,,,,,,,,,,,,,,,,100
CCc1cccc(CC)c1N(Cc1nnc(C)[nH]1)C(=O)CCl [Compound 5B],,,,,,,,,,,,,,,100,,,
